How the values were obtained:
Assay in all cases: Reduction of azo substrates over 24 hours at 35° C., microtitration plate (Example 1)
Type in all cases: cell-based
Set-up in all cases: key to RED (substrate reduced or not): RED indicates whether the substrate is reduced (Y) or not (N); RED indicates whether the substrate is reduced (Y) or not (N); key to Co (growth, absorbance at 660 nm) / Decol (substrate decolourized, decrease in absorbance) / Fluo (fluorescence multiplied by 2 relative to substrate-free control): The symbol “+” means good growth/decolourization/significant increase in fluorescence; The symbol “+/−” means difficult growth; The symbol “−” means that there is no growth/decolourization/significant increase in fluorescence
[1] = tested on: Staphylococcus epidermidis; conditions: S. epidermidis, substrate 35 mg/l
How it was run: (§1)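 Each species is represented by a single strain inoculated at 0.5 McFarland into Trypcase soya broth with substrate at 35 mg/l. Plates are read continuously at 35° C. over 24 hours. A substrate counts as reduced when absorbance falls or fluorescence doubles relative to a substrate-free control.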

Kocuria rosea = conditions: K. rosea, substrate 35 mg/l
How it was run: as §1

Staphylococcus aureus = conditions: S. aureus, substrate 35 mg/l
How it was run: as §1

Pseudomonas aeruginosa = conditions: P. aeruginosa, substrate 35 mg/l
How it was run: as §1

Escherichia coli = conditions: E. coli, substrate 35 mg/l
How it was run: as §1

Geotrichum candidum = conditions: G. candidum, substrate 35 mg/l
How it was run: as §1

Candida albicans = conditions: substrate 35 mg/l
How it was run: as §1

O=C(O)c1cc(/N=N/c2ccc(-c3nc4ccccc4s3)cc2)ccc1O [BF45, 2-Phenyl-benzothiazole-4′-azo-4″- hydroxybenzene-3″-carboxylic acid]
+: Co (growth, absorbance at 660 nm) [1] | Fluo (fluorescence multiplied by 2 relative to substrate-free control) [1] | Co (growth, absorbance at 660 nm) (Kocuria rosea) | Fluo (fluorescence multiplied by 2 relative to substrate-free control) (Kocuria rosea) | Co (growth, absorbance at 660 nm) (Staphylococcus aureus) | Decol (substrate decolourized, decrease in absorbance) (Staphylococcus aureus) | Fluo (fluorescence multiplied by 2 relative to substrate-free control) (Staphylococcus aureus) | Co (growth, absorbance at 660 nm) (Pseudomonas aeruginosa) | Co (growth, absorbance at 660 nm) (Escherichia coli) | Fluo (fluorescence multiplied by 2 relative to substrate-free control) (Escherichia coli) | Co (growth, absorbance at 660 nm) (Geotrichum candidum) | Co (growth, absorbance at 660 nm) (Candida albicans)
Y: RED (substrate reduced or not) [1] | RED (substrate reduced or not) (Kocuria rosea) | RED (substrate reduced or not) (Staphylococcus aureus) | RED (substrate reduced or not) (Escherichia coli)
−: Decol (substrate decolourized, decrease in absorbance) [1] | Decol (substrate decolourized, decrease in absorbance) (Kocuria rosea) | Decol (substrate decolourized, decrease in absorbance) (Pseudomonas aeruginosa) | Fluo (fluorescence multiplied by 2 relative to substrate-free control) (Pseudomonas aeruginosa) | Decol (substrate decolourized, decrease in absorbance) (Escherichia coli) | Decol (substrate decolourized, decrease in absorbance) (Geotrichum candidum) | Fluo (fluorescence multiplied by 2 relative to substrate-free control) (Geotrichum candidum) | Decol (substrate decolourized, decrease in absorbance) (Candida albicans) | Fluo (fluorescence multiplied by 2 relative to substrate-free control) (Candida albicans)
N: RED (substrate reduced or not) (Pseudomonas aeruginosa) | RED (substrate reduced or not) (Geotrichum candidum) | RED (substrate reduced or not) (Candida albicans)

CN(C)c1ccc(N=Nc2ccc(S(=O)(=O)[O-])cc2)cc1.[Na+] [Methyl orange]
N: RED (substrate reduced or not) [1] | RED (substrate reduced or not) (Staphylococcus aureus) | RED (substrate reduced or not) (Pseudomonas aeruginosa) | RED (substrate reduced or not) (Escherichia coli) | RED (substrate reduced or not) (Geotrichum candidum) | RED (substrate reduced or not) (Candida albicans)
−: Decol (substrate decolourized, decrease in absorbance) [1] | Fluo (fluorescence multiplied by 2 relative to substrate-free control) [1] | Co (growth, absorbance at 660 nm) (Kocuria rosea) | Decol (substrate decolourized, decrease in absorbance) (Kocuria rosea) | Fluo (fluorescence multiplied by 2 relative to substrate-free control) (Kocuria rosea) | Decol (substrate decolourized, decrease in absorbance) (Staphylococcus aureus) | Fluo (fluorescence multiplied by 2 relative to substrate-free control) (Staphylococcus aureus) | Decol (substrate decolourized, decrease in absorbance) (Pseudomonas aeruginosa) | Fluo (fluorescence multiplied by 2 relative to substrate-free control) (Pseudomonas aeruginosa) | Decol (substrate decolourized, decrease in absorbance) (Escherichia coli) | Fluo (fluorescence multiplied by 2 relative to substrate-free control) (Escherichia coli) | Decol (substrate decolourized, decrease in absorbance) (Geotrichum candidum) | Fluo (fluorescence multiplied by 2 relative to substrate-free control) (Geotrichum candidum) | Decol (substrate decolourized, decrease in absorbance) (Candida albicans) | Fluo (fluorescence multiplied by 2 relative to substrate-free control) (Candida albicans)
+: Co (growth, absorbance at 660 nm) [1] | Co (growth, absorbance at 660 nm) (Staphylococcus aureus) | Co (growth, absorbance at 660 nm) (Pseudomonas aeruginosa) | Co (growth, absorbance at 660 nm) (Escherichia coli) | Co (growth, absorbance at 660 nm) (Geotrichum candidum) | Co (growth, absorbance at 660 nm) (Candida albicans)

CN(C)c1ccc(/N=N/c2ccccc2C(=O)O)cc1 [Methyl red]
+/−: Co (growth, absorbance at 660 nm) (Kocuria rosea) | Decol (substrate decolourized, decrease in absorbance) (Kocuria rosea) | Decol (substrate decolourized, decrease in absorbance) (Pseudomonas aeruginosa) | Co (growth, absorbance at 660 nm) (Geotrichum candidum) | Decol (substrate decolourized, decrease in absorbance) (Geotrichum candidum)
+: Co (growth, absorbance at 660 nm) [1] | Decol (substrate decolourized, decrease in absorbance) [1] | Fluo (fluorescence multiplied by 2 relative to substrate-free control) [1] | Fluo (fluorescence multiplied by 2 relative to substrate-free control) (Kocuria rosea) | Co (growth, absorbance at 660 nm) (Staphylococcus aureus) | Decol (substrate decolourized, decrease in absorbance) (Staphylococcus aureus) | Fluo (fluorescence multiplied by 2 relative to substrate-free control) (Staphylococcus aureus) | Co (growth, absorbance at 660 nm) (Pseudomonas aeruginosa) | Fluo (fluorescence multiplied by 2 relative to substrate-free control) (Pseudomonas aeruginosa) | Co (growth, absorbance at 660 nm) (Escherichia coli) | Decol (substrate decolourized, decrease in absorbance) (Escherichia coli) | Fluo (fluorescence multiplied by 2 relative to substrate-free control) (Escherichia coli) | Fluo (fluorescence multiplied by 2 relative to substrate-free control) (Geotrichum candidum) | Co (growth, absorbance at 660 nm) (Candida albicans) | Decol (substrate decolourized, decrease in absorbance) (Candida albicans) | Fluo (fluorescence multiplied by 2 relative to substrate-free control) (Candida albicans)
Y: RED (substrate reduced or not) [1] | RED (substrate reduced or not) (Kocuria rosea) | RED (substrate reduced or not) (Staphylococcus aureus) | RED (substrate reduced or not) (Pseudomonas aeruginosa) | RED (substrate reduced or not) (Escherichia coli) | RED (substrate reduced or not) (Geotrichum candidum) | RED (substrate reduced or not) (Candida albicans)

O=S(=O)([O-])c1ccc(N=Nc2c(O)ccc3ccccc23)cc1.[Na+] [Orange II]
−: Decol (substrate decolourized, decrease in absorbance) [1] | Fluo (fluorescence multiplied by 2 relative to substrate-free control) [1] | Co (growth, absorbance at 660 nm) (Kocuria rosea) | Decol (substrate decolourized, decrease in absorbance) (Kocuria rosea) | Fluo (fluorescence multiplied by 2 relative to substrate-free control) (Kocuria rosea) | Decol (substrate decolourized, decrease in absorbance) (Staphylococcus aureus) | Fluo (fluorescence multiplied by 2 relative to substrate-free control) (Staphylococcus aureus) | Decol (substrate decolourized, decrease in absorbance) (Pseudomonas aeruginosa) | Fluo (fluorescence multiplied by 2 relative to substrate-free control) (Pseudomonas aeruginosa) | Decol (substrate decolourized, decrease in absorbance) (Escherichia coli) | Fluo (fluorescence multiplied by 2 relative to substrate-free control) (Escherichia coli) | Decol (substrate decolourized, decrease in absorbance) (Geotrichum candidum) | Fluo (fluorescence multiplied by 2 relative to substrate-free control) (Geotrichum candidum) | Decol (substrate decolourized, decrease in absorbance) (Candida albicans) | Fluo (fluorescence multiplied by 2 relative to substrate-free control) (Candida albicans)
+/−: Co (growth, absorbance at 660 nm) (Geotrichum candidum)
+: Co (growth, absorbance at 660 nm) [1] | Co (growth, absorbance at 660 nm) (Staphylococcus aureus) | Co (growth, absorbance at 660 nm) (Pseudomonas aeruginosa) | Co (growth, absorbance at 660 nm) (Escherichia coli) | Co (growth, absorbance at 660 nm) (Candida albicans)
N: RED (substrate reduced or not) [1] | RED (substrate reduced or not) (Staphylococcus aureus) | RED (substrate reduced or not) (Pseudomonas aeruginosa) | RED (substrate reduced or not) (Escherichia coli) | RED (substrate reduced or not) (Geotrichum candidum) | RED (substrate reduced or not) (Candida albicans)

O=C([O-])C1=NN(c2ccc(S(=O)(=O)[O-])cc2)C(=O)C1/N=N/c1ccc(S(=O)(=O)[O-])cc1.[Na+].[Na+].[Na+] (centres unmarked) [Tartrazine]
−: Decol (substrate decolourized, decrease in absorbance) [1] | Fluo (fluorescence multiplied by 2 relative to substrate-free control) [1] | Co (growth, absorbance at 660 nm) (Kocuria rosea) | Decol (substrate decolourized, decrease in absorbance) (Kocuria rosea) | Fluo (fluorescence multiplied by 2 relative to substrate-free control) (Kocuria rosea) | Decol (substrate decolourized, decrease in absorbance) (Staphylococcus aureus) | Fluo (fluorescence multiplied by 2 relative to substrate-free control) (Staphylococcus aureus) | Decol (substrate decolourized, decrease in absorbance) (Pseudomonas aeruginosa) | Fluo (fluorescence multiplied by 2 relative to substrate-free control) (Pseudomonas aeruginosa) | Decol (substrate decolourized, decrease in absorbance) (Escherichia coli) | Fluo (fluorescence multiplied by 2 relative to substrate-free control) (Escherichia coli) | Decol (substrate decolourized, decrease in absorbance) (Geotrichum candidum) | Fluo (fluorescence multiplied by 2 relative to substrate-free control) (Geotrichum candidum) | Decol (substrate decolourized, decrease in absorbance) (Candida albicans) | Fluo (fluorescence multiplied by 2 relative to substrate-free control) (Candida albicans)
+: Co (growth, absorbance at 660 nm) [1] | Co (growth, absorbance at 660 nm) (Staphylococcus aureus) | Co (growth, absorbance at 660 nm) (Pseudomonas aeruginosa) | Co (growth, absorbance at 660 nm) (Escherichia coli) | Co (growth, absorbance at 660 nm) (Candida albicans)
+/−: Co (growth, absorbance at 660 nm) (Geotrichum candidum)
N: RED (substrate reduced or not) [1] | RED (substrate reduced or not) (Staphylococcus aureus) | RED (substrate reduced or not) (Pseudomonas aeruginosa) | RED (substrate reduced or not) (Escherichia coli) | RED (substrate reduced or not) (Geotrichum candidum) | RED (substrate reduced or not) (Candida albicans)

Source: patent publication US20150125889A1, “IN VITRO DETECTION OF MICROORGANISMS WITH AZOREDUCTASE ACTIVITY” (BIOMÉRIEUX, priority 2012, published 2015)
